Patent US20140329858A1, “Cyclic Urea Derivatives As Androgen Receptor Antagonists” (priority 2011, published 2014)

system: Vcap cells; test: Dihydrotestosterone (DHT) mediated XTT cell proliferation assay for screening AR antagonists using Vcap cells; assay type: cell-based; settings: Homo sapiens, 240 h, in the presence of 0.2 nM DHT, XTT readout on Day 10, IC50 curves from 8 concentrations
Description: Dihydrotestosterone (DHT) Mediated XTT Cell Proliferation Assay for Screening AR Antagonists Using Vcap cells
The Vcap cells (4×10^6 cells) were seeded in a T-75 flask containing DMEM with 15% FBS. After 72 hours, the media was removed; the cells were washed once and replaced with phenol red free DMEM containing 8% charcoal stripped serum. Then, the cells were starved in phenol red free DMEM with 8% charcoal stripped serum for 5 days. Following the starvation, the cells were harvested and seeded in 96 well plates (10×10^3 cells per well) in phenol red free DMEM with 8% charcoal stripped serum (Day 0). The cells were allowed to settle and on Day 4 they were treated with different concentrations of the compound (30 μM, 10 μM, 1 μM, 500 nM, 100 nM, 10 nM, 1 nM, 0.1 nM) in the presence of 0.2 nM DHT. DHT alone and a DMSO controls were also included. All treatments were done in triplicate. The drugs were replenished on Day 7 and the cells were allowed to grow for another 72 hours. On Day 10, the experiment was terminated by adding the XTT reagent (2,3-bis[2-methoxy-4-notro-5-sulfophenyl]-2H-tetrazolium-5-caboxyanilide inner salt) dissolved in Phenol red free DMEM without serum. The cells with the XTT reagents were incubated inside the CO2 incubator for 3-4 hours for color development; after which the readings were taken at […] using a spectramax Gemini plate reader.
Data fitting: The IC50 curves for the 8 compound concentrations were calculated with GraphPad Prism software using the sigmoidal dose-response function. (Graphpad Software, San Diego, Calif., USA).

| Compound | IC50 |
| --- | --- |
| N#Cc1ccc(N2C(=O)N(c3ccc(C(=O)NOCC4CC4)c(F)c3)[C@@H]3CCCC[C@H]32)cc1C(F)(F)F (racemic) [Example 19, Trans-4-(3-(4-cyano-3-(trifluoromethyl)phenyl)-2-oxooctahydro-1H-benzo[d]im-idazol-1-yl)-N-(cyclopropylmethoxy)-2-fluorobenzamide (±)] | 233 nM |
| N#Cc1ccc(N2C(=O)N(c3ccc(Cl)cc3)[C@@H]3CCCC[C@H]32)cc1C(F)(F)F (racemic) [Example 60, Trans-4-(3-(4-chlorophenyl)-2-oxooctahydro-1H-benzo[d]imidazol-1-yl)-2-(trifluoromethyl)benzonitrile (±)] | 397 nM |
| CNC(=O)c1ccc(N2C(=O)N(c3ccc(C#N)c(C(F)(F)F)c3)[C@@H]3CCCCC[C@H]32)cc1F (racemic) [Example 80, Trans-4-(3-(4-cyano-3-(trifluoromethyl)phenyl)-2-oxooctahydrocyclohepta[d]imidazol-1(2H)-yl)-2-fluoro-N-methylbenzamide (±)] | 254 nM |
| Cc1c(N2C(=O)N(c3ccc(C#N)c(C(F)(F)F)c3)[C@H]3CCCC[C@@H]32)ccc(C#N)c1Cl (racemic) [Example 42, Trans-2-chloro-4-(3-(4-cyano-3-(trifluoromethyl)phenyl)-2-oxooctahydro-1H-benzo[d]imidazol-1-yl)-3-methylbenzonitrile (±)] | 168 nM |
| COCCONC(=O)c1ccc(N2C(=O)N(c3ccc(C#N)c(C(F)(F)F)c3)[C@@H]3CCCC[C@H]32)cc1F (racemic) [Example 20, Trans-4-(3-(4-cyano-3-(trifluoromethyl)phenyl)-2-oxooctahydro-1H-benzo[d]im-idazol-1-yl)-2-fluoro-N-(2-methoxyethoxy)benzamide (±)] | 322 nM |
| CCN(CC)CCONC(=O)c1ccc(N2C(=O)N(c3ccc(C#N)c(C(F)(F)F)c3)[C@@H]3CCCC[C@H]32)cc1F (racemic) [Example 26, Trans-4-(3-(4-cyano-3-(trifluoromethyl)phenyl)-2-oxooctahydro-1H-benzo[d]im-idazol-1-yl)-N-(2-(diethylamino)ethoxy)-2-fluorobenzamide (±)] | 75.5 nM |
| N#Cc1ccc(N2C(=O)N(c3ccc(N)c(F)c3)[C@@H]3CCCC[C@H]32)cc1C(F)(F)F (racemic) [Example 15, Trans-(4-(-3-(4-amino-3-fluorophenyl)-2-oxooctahydro-1H-benzo[d]imidazol-1-yl)-2-(trifluoromethyl)benzonitrile (±)] | 823 nM |
| N#Cc1ccc(N2C(=O)N(c3ccnc(F)c3)[C@@H]3CCCC[C@H]32)cc1C(F)(F)F (racemic) [Example 10, Trans-4-(3-(2-fluoropyridin-4-yl)-2-oxooctahydro-1H-benzo[d]imidazol-1-yl)-2-(trifluoromethyl)benzonitrile (±)] | 365 nM |
| N#Cc1ccc(N2C(=O)N(c3ccc(C(=O)O)c(F)c3)[C@@H]3CCCC[C@H]32)cc1C(F)(F)F (racemic) [Example 17, Trans-4-(3-(4-cyano-3-(trifluoromethyl)phenyl)-2-oxooctahydro-1H-benzo[d]im-idazol-1-yl)-2-fluorobenzoic acid (±)] | > 10000 nM |
| N#Cc1ccc(N2C(=O)N(c3ccncc3)[C@@H]3CCCC[C@H]32)cc1C(F)(F)F (racemic) [Example 4, Trans-4-(2-oxo-3-(pyridin-4-yl)octahydro-1H-benzo[d]imidazol-1-yl)-2-(trifluoromethyl)benzonitrile (±)] | 1040 nM |
| CNC(=O)c1ccc(N2C(=O)N(c3ccc(C#N)c(C(F)(F)F)c3)[C@H]3CCCC[C@@H]32)cn1 [Example 54, 5-((3aS,7aS)-3-(4-cyano-3-(trifluoromethyl)phenyl)-2-oxooctahydro-1H-benzo[d]imidazol-1-yl)-N-methylpicolinamide] | 245 nM |
| N#Cc1ccc(N2C(=O)N(Cc3ccc(-n4ccnc4)nc3)[C@@H]3CCCC[C@H]32)cc1C(F)(F)F (racemic) [Example 49, Trans-4-(34(6-(1H-imidazol-1-yl)pyridin-3-yl)methyl)-2-oxooctahydro-1H-benzo[d]imidazol-1-yl)-2-(trifluoromethyl)benzonitrile (±)] | 300 nM |
| N#Cc1ccc(N2C(=O)N(c3cccc(S(N)(=O)=O)n3)[C@@H]3CCCC[C@H]32)cc1C(F)(F)F (racemic) [Example 9, Trans-6-(3-(4-cyano-3-(trifluoromethyl)phenyl)-2-oxooctahydro-1H-benzo[c]imidazol-1-yl) pyridine-2-sulfonamide (±)] | > 10000 nM |
| CCOC(=O)c1ccc(N2C(=O)N(c3ccc(C#N)c(C(F)(F)F)c3)[C@@H]3CCCC[C@H]32)cc1F (racemic) [Example 6, Trans-ethyl-4-(3-(4-cyano-3-trifluoromethyl)phenyl)-2-oxooctahydro-1H-benzo[d]imidazol-1-yl)-2-fluorobenzoate (±)] | > 10000 nM |
| N#Cc1ccc(N2C(=O)N(c3ccnc(C(F)(F)F)c3)[C@@H]3CCCC[C@H]32)cc1C(F)(F)F (racemic) [Example 11, Trans-4-(2-oxo-3-(2-(trifluoromethyl)pyridin-4-yl)octahydro-1H-benzo[d]imidazol-1-yl)-2-(trifluoromethyl)benzonitrile (±)] | 1240 nM |
| N#Cc1ccc(N2C(=O)N(c3cc(Cl)cc(Cl)c3)[C@@H]3CCCC[C@H]32)cc1C(F)(F)F (racemic) [Example 43, Trans-4-(3-(3,5-dichlorophenyl)-2-oxooctahydro-1H-benzo[d]imidazol-1-yl)-2-(trifluoromethyl)benzonitrile (±)] | 339 nM |
| CNC(=O)c1ccc(N2C(=O)N(c3ccc(C#N)c(C(F)(F)F)c3)[C@@H]3CCOC[C@H]32)cc1F (racemic) [Example 73, Trans-4-(1-(4-Cyano-3-(trifluoromethyl)phenyl)-2-oxohexahydropyrano[3,4-d]imidazol-3(2H)-yl)-2-fluoro-N-methylbenzamide (±)] | 2550 nM |
| CNC(=O)c1ccc(N2C(=O)N(c3ccc(C#N)c(C(F)(F)F)c3)[C@@H]3CC(OC)CC[C@H]32)cc1F (mixture of isomers) [Example 85, Trans-4-(3-(4-cyano-3-(trifluoromethyl)phenyl)-5-methoxy-2-oxooctahydro-1H-benzo[d]imidazol-1-yl)-2-fluoro-N-methylbenzamide (±)] | 2620 nM |
| Cc1ccncc1N1C(=O)N(c2ccc(C#N)c(C(F)(F)F)c2)[C@H]2CCCC[C@@H]21 [Example 63, 4-((3aS,7aS)-3-(4-methylpyridin-3-yl)-2-oxooctahydro-1H-benzo[d]imidazol-1-yl)-2-(trifluoromethyl)benzonitrile] | 2290 nM |

same assay, conditions: in the presence of 0.2 nM DHT, XTT readout on Day 10, IC50 curves from 8 concentrations

| Compound | IC50 |
| --- | --- |
| N#Cc1ccc(N2C(=O)N(c3ccnc(F)c3)[C@@H]3CCCC[C@H]32)cc1C(F)(F)F (relative stereo) [Example 10a, Trans-4-(3-(2-fluoropyridin-4-yl)-2-oxooctahydro-1H-benzo[d]imidazol-1-yl)-2-(trifluoromethyl)benzonitrile (+)] | 2550 nM |
| CNC(=O)c1ccc(N2C(=O)N(c3ccc(C#N)c(C(F)(F)F)c3)C3CCC(O)CC32)cc1F (single isomer, unassigned) [Example 82b, Trans-4-(3-(4-cyano-3-(trifluoromethyl)phenyl)-6-hydroxy-2-oxooctahydro-1H-benzo[d]imidazol-1-yl)-2-fluoro-N-methylbenzamide (−)] | 312 nM |
| CNC(=O)c1ccc(N2C(=O)N(c3ccc(C#N)c(C(F)(F)F)c3)[C@@H]3CCCCC[C@H]32)cc1F (relative stereo) [Example 80b, Trans-4-(3-(4-cyano-3-(trifluoromethyl)phenyl)-2-oxooctahydrocyclohepta[d]imidazol-1(2H)-yl)-2-fluoro-N-methylbenzamide (+)] | 2180 nM |
| 4-((3aS,7aS)-3-(4-cyano-3-(trifluoromethyl)phenyl)-2-oxooctahydro-1H-benzo[d]imidazol-1-yl)-2-fluoro-N—((S)-tetrahydrofuran-3-yl)benzamide and 4-((3aS,7aS)-3-(4-cyano-3-(trifluoromethyl)phenyl)-2-oxooctahydro-1H-benzo[c]imidazol-1-yl)-2-fluoro-N—((R)-tetrahydrofuran-3-yl)benzamide [Example 35] | 236 nM |
| CNC(=O)c1ccc(N2C(=O)N(c3ccc(C#N)c(C(F)(F)F)c3)[C@@H]3CC=CC[C@H]32)cc1F (relative stereo) [Example 83a] | > 10000 nM |
| CNC(=O)c1ccc(N2C(=O)N(c3ccc(C#N)c(C(F)(F)F)c3)[C@@H]3CC=CC[C@H]32)cc1F (relative stereo) [Example 83b] | 31.9 nM |
| CNC(=O)c1ccc(N2C(=O)N(c3ccc(C#N)c(C(F)(F)F)c3)[C@@H]3CCCCC[C@H]32)cc1F (relative stereo) [Example 80a, Trans-4-(3-(4-cyano-3-(trifluoromethyl)phenyl)-2-oxooctahydrocyclohepta[d]imidazol-1(2H)-yl)-2-fluoro-N-methylbenzamide (−)] | 93.7 nM |
| N#Cc1ccc(N2C(=O)N(c3ccnc(F)c3)[C@@H]3CCCC[C@H]32)cc1C(F)(F)F (relative stereo) [Example 10b, Trans-4-(3-(2-fluoropyridin-4-yl)-2-oxooctahydro-1H-benzo[d]imidazol-1-yl)-2-(trifluoromethyl)benzonitrile (−)] | 280 nM |
